Laboratory results: publication PMC12563087, “Preparation, Stability and In Vitro Antineoplastic Function of Lecithin–Chitosan–Polyethylene Glycol Nanoparticles Loaded with Bioactive Peptides Derived from Phycocyanin” (Foods, 2025)
Ends that are not written are not given here.

system: pepsin; assay: In vitro simulated gastric digestion (pepsin) of PCPs and PCP-loaded NPs; format: in vitro ADME; details: after 20 min of in vitro simulated gastric digestion by pepsin; mean ± SD

Row | degradation rate | Substance
1 | 71.65% ± 2.99% | ADSLLSGLR [PCP2]
2 | 77.24% ± 1.72% | MFDAFTK [PCP3]
3 | 78.82% ± 3.46% | AGDASVLEDR [PCP1]
